Laboratory results published in PubChem BioAssay AID248 (DTP/NCI, 2004).
Several values for one entry are separate records, joined by “and”; a condition that tells them apart may be missing. Equal entries are not always repeated. Toxic doses and inconclusive results are not listed. Cut-off read from the data, not from the text of the source: active = T/C of 150% or more; inactive = T/C below 125%.

Test system: L1210 leukemia ip in BDF1 mice, survival T/C
Assay: NCI In Vivo Anticancer Drug Screen. Data for tumor model L1210 Leukemia (intraperitoneal) in B6D2F1 (BDF1) mice
Settings: endpoint: mean survival time, higher = longer survival
How it was run: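 Ratio derived from survival: compound-dosed mice over vehicle-dosed mice, all bearing a transplantable tumor.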

[1] = dose: 25.0 mg/kg/injection, schedule: Q01DX009 (ip), vehicle: Klucel (hydroxypropylcellulose) (HPC)
[2] = dose: 50.0 mg/kg/injection, schedule: Q01DX001 (ip), vehicle: carboxymethylcellulose (CMC)
[3] = dose: 50.0 mg/kg/injection, schedule: Q01DX009 (ip), vehicle: Klucel (hydroxypropylcellulose) (HPC)
[4] = dose: 100.0 mg/kg/injection, schedule: Q01DX001 (ip), vehicle: carboxymethylcellulose (CMC)
[5] = dose: 100.0 mg/kg/injection, schedule: Q01DX001 (ip), vehicle: saline
[6] = dose: 100.0 mg/kg/injection, schedule: Q01DX009 (ip), vehicle: Klucel (hydroxypropylcellulose) (HPC)
[7] = dose: 100.0 mg/kg/injection, schedule: Q01DX009 (ip), vehicle: saline
[8] = dose: 100.0 mg/kg/injection, schedule: Q04DX003 (ip), vehicle: saline
[9] = dose: 200.0 mg/kg/injection, schedule: Q01DX001 (ip), vehicle: carboxymethylcellulose (CMC)
[10] = dose: 200.0 mg/kg/injection, schedule: Q01DX001 (ip), vehicle: saline
[11] = dose: 400.0 mg/kg/injection, schedule: Q01DX001 (ip), vehicle: carboxymethylcellulose (CMC)
[12] = dose: 12.5 mg/kg/injection, schedule: Q04DX003 (ip), vehicle: Klucel (hydroxypropylcellulose) (HPC)
[13] = dose: 25.0 mg/kg/injection, schedule: Q04DX003 (ip), vehicle: Klucel (hydroxypropylcellulose) (HPC)
[14] = dose: 50.0 mg/kg/injection, schedule: Q01DX001 (ip), vehicle: saline
[15] = dose: 100.0 mg/kg/injection, schedule: Q04DX003 (ip), vehicle: Klucel (hydroxypropylcellulose) (HPC)
[16] = dose: 200.0 mg/kg/injection, schedule: Q01DX009 (ip), vehicle: Klucel (hydroxypropylcellulose) (HPC)
[17] = dose: 400.0 mg/kg/injection, schedule: Q01DX009 (ip), vehicle: Klucel (hydroxypropylcellulose) (HPC)
[18] = dose: 200.0 mg/kg/injection, schedule: Q04DX003 (ip), vehicle: Klucel (hydroxypropylcellulose) (HPC)
[19] = dose: 400.0 mg/kg/injection, schedule: Q04DX003 (ip), vehicle: Klucel (hydroxypropylcellulose) (HPC)

Measured: T/C

CC(=O)Oc1ccc(N2C(=O)C=CC2=O)cc1 (tested in a mixture with another compound)
inactive: dose: 100.0 mg/kg/injection, schedule: Q04DX003 (ip), vehicle: acetone 96 % of control | dose: 100.0 mg/kg/injection, schedule: Q04DX003 (ip), vehicle: other 89 % of control | dose: 200.0 mg/kg/injection, schedule: Q04DX003 (ip), vehicle: acetone 96 % of control | dose: 400.0 mg/kg/injection, schedule: Q04DX003 (ip), vehicle: acetone 100 % of control | dose: 400.0 mg/kg/injection, schedule: Q04DX003 (ip), vehicle: other 87 % of control

Nc1nc(Cl)nc2c1ncn2C1OC(CO)C(O)C1O (configuration not stated)
inactive: [1] 102 % of control | dose: 37.5 mg/kg/injection, schedule: Q01DX009 (ip), vehicle: saline with Tween-80 113 % of control | [2] 93 % of control | [3] 114 % of control | dose: 50.0 mg/kg/injection, schedule: Q04DX003 (ip), vehicle: saline 108 % of control | [4] 96 % of control | [5] 92 % of control | [6] 123 % of control | [8] 113 % of control | [9] 98 % of control | [10] 103 % of control | dose: 225.0 mg/kg/injection, schedule: Q01DX009 (ip), vehicle: saline 121 % of control | [11] 118 % of control
active: [7] 156 % of control | dose: 300.0 mg/kg/injection, schedule: Q04DX003 (ip), vehicle: saline 153 % of control

COC(=O)CC1OCC=C2CN3CCC45C6=CC(=O)C(=O)C([N+](=O)[O-])=C6NC4C1C2CC35 (configuration not stated)
inactive: dose: 5.0 mg/kg/injection, schedule: Q01DX001 (ip), vehicle: saline 97 % of control | dose: 10.0 mg/kg/injection, schedule: Q01DX001 (ip), vehicle: saline 97 % of control

C/C=C/C=C\COC(=O)c1ccccc1OCC
inactive: dose: 100.0 mg/kg/injection, schedule: Q04DX002 (ip), vehicle: saline 98 % of control and 107 % of control | dose: 200.0 mg/kg/injection, schedule: Q04DX002 (ip), vehicle: saline 101 % of control and 109 % of control | dose: 400.0 mg/kg/injection, schedule: Q04DX002 (ip), vehicle: saline 109 % of control | dose: 800.0 mg/kg/injection, schedule: Q04DX002 (ip), vehicle: saline 106 % of control

O=C1NC(=O)C(F)(F)C(O)N1 (configuration not stated)
inactive: dose: 45.0 mg/kg/injection, schedule: Q01DX009 (ip), vehicle: saline 117 % of control | dose: 65.0 mg/kg/injection, schedule: Q01DX009 (ip), vehicle: saline 94 % of control | [7] 92 % of control | [8] 108 % of control | dose: 150.0 mg/kg/injection, schedule: Q01DX009 (ip), vehicle: saline 97 % of control | dose: 200.0 mg/kg/injection, schedule: Q04DX003 (ip), vehicle: saline 117 % of control | dose: 220.0 mg/kg/injection, schedule: Q01DX009 (ip), vehicle: saline 90 % of control | dose: 400.0 mg/kg/injection, schedule: Q04DX003 (ip), vehicle: saline 120 % of control

c1ccc2c3csc4ccccc4c-3nc2c1
inactive: dose: 6.25 mg/kg/injection, schedule: Q01DX009 (ip), vehicle: saline 97 % of control | dose: 12.5 mg/kg/injection, schedule: Q01DX009 (ip), vehicle: saline 101 % of control | [12] 94 % of control | dose: 25.0 mg/kg/injection, schedule: Q01DX009 (ip), vehicle: saline 103 % of control | [13] 94 % of control | dose: 35.0 mg/kg/injection, schedule: Q01DX009 (ip), vehicle: Klucel (hydroxypropylcellulose) (HPC) 91 % of control

CCOC(=O)N1C(=O)NC(=O)C1c1ccccc1 (configuration not stated)
inactive: [14] 97 % of control | [5] 115 % of control | [10] 97 % of control

CCOC(=O)CCN(C)CCC(=O)OCC
inactive: dose: 12.5 mg/kg/injection, schedule: Q01DX009 (ip), vehicle: water 101 % of control | dose: 25.0 mg/kg/injection, schedule: Q01DX009 (ip), vehicle: water 103 % of control | dose: 25.0 mg/kg/injection, schedule: Q04DX003 (ip), vehicle: water 101 % of control | dose: 50.0 mg/kg/injection, schedule: Q01DX009 (ip), vehicle: water 105 % of control | dose: 50.0 mg/kg/injection, schedule: Q04DX003 (ip), vehicle: water 101 % of control | dose: 100.0 mg/kg/injection, schedule: Q04DX003 (ip), vehicle: water 101 % of control

Cn1nc(N)c2cc3c(=O)[nH]cnc3nc21
inactive: dose: 100.0 mg/kg/injection, schedule: Q01DX001 (ip), vehicle: Klucel (hydroxypropylcellulose) (HPC) 96 % of control | dose: 200.0 mg/kg/injection, schedule: Q01DX001 (ip), vehicle: Klucel (hydroxypropylcellulose) (HPC) 104 % of control | dose: 400.0 mg/kg/injection, schedule: Q01DX001 (ip), vehicle: Klucel (hydroxypropylcellulose) (HPC) 101 % of control

NC(=S)S.[Zn+2]
inactive: dose: 13.3 mg/kg/injection, schedule: Q01DX Z (ip), vehicle: methylcellulose (MC) 96 % of control | dose: 20.0 mg/kg/injection, schedule: Q01DX Z (ip), vehicle: methylcellulose (MC) 90 % of control | dose: 30.0 mg/kg/injection, schedule: Q01DX Z (ip), vehicle: methylcellulose (MC) 90 % of control

COc1ccc2c3c1OC1C4(CCC5C(C2)N(CC2CC2)CCC351)OCCO4 (configuration not stated)
inactive: [12] 101 % of control | [1] 95 % of control | [13] 103 % of control | [3] 94 % of control | dose: 50.0 mg/kg/injection, schedule: Q04DX003 (ip), vehicle: Klucel (hydroxypropylcellulose) (HPC) 101 % of control | [6] 91 % of control | [15] 101 % of control

CC(C)CP(=O)(CC(C)C)C1CCCCC1
inactive: dose: 100.0 mg/kg/injection, schedule: Q04DX003 (ip), vehicle: saline with Tween-80 97 % of control | dose: 200.0 mg/kg/injection, schedule: Q04DX003 (ip), vehicle: saline with Tween-80 99 % of control

Cc1cc(/C=N/NC(=O)c2ccccc2NC(=O)c2ccccc2Cl)ccc1O
inactive: [6] 88 % of control | [16] 92 % of control | [17] 86 % of control

ClC12CCCC3CCCC(CCC1)C32 (configuration not stated)
inactive: dose: 100.0 mg/kg/injection, schedule: Q01DX009 (ip), vehicle: saline with Tween-80 101 % of control | [15] 103 % of control | dose: 200.0 mg/kg/injection, schedule: Q01DX009 (ip), vehicle: saline with Tween-80 90 % of control | [18] 97 % of control | dose: 400.0 mg/kg/injection, schedule: Q01DX009 (ip), vehicle: saline with Tween-80 89 % of control | [19] 96 % of control

BrC1CC2C3CCC(C3)C2C1Br (configuration not stated)
inactive: [2] 91 % of control | [4] 93 % of control | [9] 93 % of control | [11] 93 % of control

Nc1ccn(C2OC(COC3CCCCO3)C(OC3CCCCO3)C2OC2CCCCO2)c(=O)n1 (configuration not stated)
inactive: dose: 50.0 mg/kg/injection, schedule: Q01DX009 (ip), vehicle: saline 95 % of control | dose: 100.0 mg/kg/injection, schedule: Q01DX005 (ip), vehicle: saline 110 % of control | [7] 104 % of control | dose: 200.0 mg/kg/injection, schedule: Q01DX005 (ip), vehicle: saline 94 % of control | dose: 200.0 mg/kg/injection, schedule: Q01DX009 (ip), vehicle: saline 101 % of control

Cc1ccc2c(ccc3nnc(C)n32)c1
inactive: [14] 109 % of control | [5] 103 % of control

O=S(=O)(Cc1cccc(C(F)(F)F)c1)c1ccccc1-n1cccc1
inactive: [18] 90 % of control | [19] 98 % of control

O=C(Nc1ccc(Nc2ccccc2)cc1)Nc1ccccc1Cl
inactive: [6] 90 % of control | [15] 95 % of control | [16] 90 % of control | [18] 92 % of control | [17] 92 % of control | [19] 90 % of control
